Laboratory results published in US7776572B2, “Method for reducing loss of enzyme activity during storage” (Corning Incorporated, priority 1996, dated 2010).
Marks after values point to notes of the source that are not given here.

Legend:
IgG [1] = experiment: IgG/Au staining of coated polystyrene, type of endgroups
Procedure: Except where indicated, the non-ionic surfactants were applied to the hydrophobic surfaces being tested as a 0.1% (weight/volume) solution in isopropanol. A sufficient amount of coating solution was used to cover the surface being testing with a thin layer of the solution (e.g., 25 μl of the solution per well for a standard 24-well plate). In some cases, the solution was applied to surface by spraying; in others, it was poured onto the surface (into the well). Except where indicated, coated samples were either dried at 70° C. for 30 minutes in an air circulated oven or dried at room temperature overnight to evaporate the isopropanol. Protein binding was determined in some examples using a colloidal gold straining procedure. In accordance with this procedure, colloidal gold becomes electrostatically attached to bound protein and is detected by measuring absorbance at 550 nanometers. Bio-Rad Laboratories' Colloidal Gold Total Protein Stain was used for this purpose, with absorbance being measured with a Cambridge Technologies Plate Reader (No. 7520). The non-ionic surfactants listed in Table 6 were tested for their ability to produce a low binding surface using the techniques described in Materials and Methods. Polystyrene was used as the hydrophobic test surface and IgG/Au staining was used as the readout.

IgG [2] = experiment: Coating durability using water washes, IgG binding by colloidal gold; conditions: for Absorbance (550 nm) Initial: coated polystyrene, no water wash; for Absorbance (550 nm) 1 Time 1 hr 23° C. / Absorbance (550 nm) 1 Time 24 hr 23° C. / Absorbance (550 nm) 1 Time 24 hr 37° C. / Absorbance (550 nm) 1 Time 24 hr 70° C.: dI H2O wash 1 time; for Absorbance (550 nm) 6 Times 30 min each 23° C.: dI H2O wash 6 times
Procedure: Polystyrene plates having 24 wells (Corning Costar #9447) were coated with these surfactants as described in Materials and Methods. Durability was tested by adding dI H2O to the wells of a test plate (3.0 mls/well), following which the plate was placed on a rocker table. […] The protein solution was incubated with the plate on a rocker table for 30 minutes at 23° C., following which the plate was H2O rinse 3× (3 mls each time). The colloidal gold staining procedure described above was used to reveal bound protein. The staining comprised an overnight incubation on a rocker table at 23° C., a dI H2O rinse, drying at room temperature, and reading at 550 nm.

[3] = tested on: BSA protein (Bovine Serum Albumin, Fraction V); experiment: BSA binding to coated polystyrene 24-well plates at different pH, colloidal gold stain; conditions: for Absorbance (550 nm) pH = 9.2: BSA 10 μg/ml in 0.10 M NaHCO3 buffer; for Absorbance (550 nm) pH = 7.4: BSA 10 μg/ml in 0.10 M PBS; for Absorbance (550 nm) pH = 4.6: BSA 10 μg/ml in 0.10 M acetate buffer
Procedure: Polystyrene plates having 24 wells (Corning Costar #9447) were coated as described in Materials and Methods.
BSA protein (Bovine Serum Albumin, Fraction V, Sigma) was prepared at 10 μg/ml in 0.10 M acetate buffer (pH=4.6), in 0.10 M PBS (pH=7.4), and in 0.10 M NaHCO3 buffer (pH=9.2). Wells of each coated plate, along with uncoated controls, were aliquoted 0.50 ml each of the protein solutions. The samples were run in triplicate.
The plates were placed on a rocker table for 30 minutes at 23° C. The protein solutions were then emptied from the plates, and the wells were rinsed three times with dl H2O. Thereafter, 1.0 ml of colloidal gold stain was added to each well (see Materials and Methods). The plates were placed on a rocker table overnight, rinsed three times with dI H2O, and air dried. Absorbance at 550 nm was then read using the Cambridge Technologies Plate Reader.

Horse IgG = experiment: Protein binding by colloidal gold staining, coated medium binding polystyrene plates; conditions: coated medium binding PS; IgG 10 μg/ml, pH 9.4
Procedure: Except where indicated, the non-ionic surfactants were applied to the hydrophobic surfaces being tested as a 0.1% (weight/volume) solution in isopropanol. A sufficient amount of coating solution was used to cover the surface being testing with a thin layer of the solution (e.g., 25 μl of the solution per well for a standard 24-well plate). In some cases, the solution was applied to surface by spraying; in others, it was poured onto the surface (into the well). Except where indicated, coated samples were either dried at 70° C. for 30 minutes in an air circulated oven or dried at room temperature overnight to evaporate the isopropanol.
Protein binding was determined in some examples using a colloidal gold straining procedure. In accordance with this procedure, colloidal gold becomes electrostatically attached to bound protein and is detected by measuring absorbance at 550 nanometers. Bio-Rad Laboratories' Colloidal Gold Total Protein Stain was used for this purpose, with absorbance being measured with a Cambridge Technologies Plate Reader (No. 7520).
The surfactants were coated onto medium binding polystyrene plates (Corning Costar No. 2587) as described in Material and Methods.
The plates were incubated with IgG as follows: 0.1 ml of Horse IgG (Pierce Labs) at a working concentration of 10 μg/ml in 0.10M NaHCO3 buffer (pH9.4) were added to each well, incubated 30 minutes on a rocker table, and rinsed with dI H2O. The plates were gold stained overnight (0.3 ml/well), rinsed in dI H2O, air dried, and absorbance was measured at 550 nm.

BSA = experiment: Polymer blends molded into petri dishes, BSA binding by colloidal gold
Procedure: (§1) Low binding non-ionic surfactant molecules were blended at 5% (except as noted in Table 13) into a base polymer using a twin screw extruder, then injection molded into the shape of 35 mm petri dishes. Proteins tested were BSA and Fetal Bovine Serum (FBS). Protein binding was determined using a colloidal gold staining procedure as described above. In the case of the polypropylene and EVA blends, a silver enhancer was used (Sigma Chem. Co., St, Louis, Mo., Kit #SE-100).

HRP-Goat A'Mouse IgG = experiment: Enzymatic determination of protein binding to coated medium binding polystyrene plate; conditions: coated medium binding PS; versus uncoated high binding polystyrene plate; absorbance 405 nm
Procedure: The surfactants were coated onto a medium binding polystyrene plate (Corning Costar No. 2587) as described in Material and Methods. A medium binding polystyrene plate (Corning Costar No. 2587) and a high binding polystyrene plate (Corning Costar No. 2581) were used as controls.
(a) HRP-Goat A'Mouse IgG: Kirkegaard & Perry Laboratories, Inc. Catalog No. 074-1806. Stock solution: 0.5 mg/ml; working concentration: 0.04 μg/ml. The working concentration was obtained by adding 11 μl of the stock solution per 25 mls of PBS pH 7.4 to produce a work stock (WS), and then diluting 1:6 (i.e., 10 mls WS+50 mls PBS pH 7.4).
(1) 100 μl-well of HRP-Goat A'Mouse IgG at a concentration of 0.04 μg/ml were added to the test wells and incubated for 1 hour at room temperature.
(2) The wells were then washed 5 times with the 1M wash solution. Each wash include a 5 minute soak followed by decanting.
(3) 100 μl/well of substrate (30 mls ABTS+30 mls H2O2) were added to the test wells and incubated for 15 minutes at room temperature in the dark.
(4) 100 μl/well of stopping solution (1% SDS) were added to the test wells.
(5) The plates were then shaken and read at 405 nm.
(6) Reduction in binding was determined by comparing the absorbance measured in step (5) with the absorbance measured for a high binding polystyrene plate which had not been treated with a non-ionic surfactant but otherwise subjected to steps (1) to (5).

Fetal Bovine Serum (FBS) = experiment: Polymer blends molded into petri dishes, FBS protein binding by colloidal gold
Procedure: as §1

[4] = blended at 5% into polypropylene, silver enhancer

Substance: PEO(200) DI-OLEATE
- Bound Protein Absorbance at 550 nm (IgG [1]): 0.15

Substance: PEO(400) DI-OLEATE
- Bound Protein Absorbance at 550 nm (IgG [1]): 0.15

Substance: PEO(400) DI-STEARATE
- Bound Protein Absorbance at 550 nm (IgG [1]): 0.10

Substance: PEO(600) DI-STEARATE
- Bound Protein Absorbance at 550 nm (IgG [1]): 0.10

Substance: SORBITOL MONO-LAURATE
- Absorbance (550 nm) Initial (IgG [2]): 0.00
- Absorbance (550 nm) 1 Time 1 hr 23° C. (IgG [2]): 0.00
- Absorbance (550 nm) 1 Time 24 hr 23° C. (IgG [2]): 0.00
- Absorbance (550 nm) 1 Time 24 hr 37° C. (IgG [2]): 0.00
- Absorbance (550 nm) 1 Time 24 hr 70° C. (IgG [2]): 0.00-0.02
- Absorbance (550 nm) 6 Times 30 min each 23° C. (IgG [2]): 0.02-0.06
- Absorbance (550 nm) pH = 9.2 [3]: 0.00
- Absorbance (550 nm) pH = 7.4 [3]: 0.00
- Absorbance (550 nm) pH = 4.6 [3]: 0.00
- IgG Protein Binding Absorbance (550 nm) (Horse IgG): 0.00

Substance: SORBITOL MONO-STEARATE
- Absorbance (550 nm) Initial (IgG [2]): 0.00
- Absorbance (550 nm) 1 Time 1 hr 23° C. (IgG [2]): 0.00
- Absorbance (550 nm) 1 Time 24 hr 23° C. (IgG [2]): 0.00
- Absorbance (550 nm) 1 Time 24 hr 37° C. (IgG [2]): 0.00
- Absorbance (550 nm) 1 Time 24 hr 70° C. (IgG [2]): 0.00
- Absorbance (550 nm) 6 Times 30 min each 23° C. (IgG [2]): 0.00
- Bound Protein Absorbance (550 nm) BSA (BSA; [4]): 0.000
- Absorbance (550 nm) pH = 9.2 [3]: 0.00
- Absorbance (550 nm) pH = 7.4 [3]: 0.00
- Absorbance (550 nm) pH = 4.6 [3]: 0.00
- IgG Protein Binding Absorbance (550 nm) (Horse IgG): 0.00
- % Reduction in Protein Binding (HRP-Goat A'Mouse IgG): 83.1* %
- Bound Protein Absorbance (550 nm) FBS (Fetal Bovine Serum (FBS); [4]): 0.000

Substance: SORBITOL TRI-STEARATE
- Bound Protein Absorbance (550 nm) BSA (BSA; blended at 5% into polystyrene): 0.005
- Bound Protein Absorbance (550 nm) FBS (Fetal Bovine Serum (FBS); blended at 5% into polystyrene): 0.008
